Laboratory results reported in ChEMBL document CHEMBL1201862, “PubChem BioAssay data set” (2004).
Active and inactive are the calls of the source.

Columns and labels:
[1] = molecular target: T1, Endoribonuclease toxin MazF (Escherichia coli K-12, UniProt P0AE70); assay: activation of MazEF endoribonuclease cleavage – biochemical, fluorescence, single-stranded RNA substrate, uHTS hits, dose response (AID 588481); assay type: functional
T1 sequence (P0AE70 whole entry): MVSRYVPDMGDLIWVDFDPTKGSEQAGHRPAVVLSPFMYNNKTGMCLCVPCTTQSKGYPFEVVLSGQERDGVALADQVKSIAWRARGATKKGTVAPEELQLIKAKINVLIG

[2] = molecular target: T1, Endoribonuclease toxin MazF; assay: substrate-only fluorescence increase artefacts – biochemical, single-stranded RNase substrate, counter-screen for MazEF activator project, dose response (AID 588502); assay type: functional
[3] = molecular target: Arf-GAP with SH3 domain, ANK repeat and PH domain-containing protein 1 (Homo sapiens, UniProt Q9ULH1); assay type: functional;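 note: biochemical fluorescence polarization dose–response screen measuring inhibition of ASAP1; ASAP1 GAP domain stimulating GTP hydrolysis by truncated human ARF1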
Chain of Arf-GAP with SH3 domain, ANK repeat and PH domain-containing protein 1 (Q9ULH1 whole entry, the tested form may be a part): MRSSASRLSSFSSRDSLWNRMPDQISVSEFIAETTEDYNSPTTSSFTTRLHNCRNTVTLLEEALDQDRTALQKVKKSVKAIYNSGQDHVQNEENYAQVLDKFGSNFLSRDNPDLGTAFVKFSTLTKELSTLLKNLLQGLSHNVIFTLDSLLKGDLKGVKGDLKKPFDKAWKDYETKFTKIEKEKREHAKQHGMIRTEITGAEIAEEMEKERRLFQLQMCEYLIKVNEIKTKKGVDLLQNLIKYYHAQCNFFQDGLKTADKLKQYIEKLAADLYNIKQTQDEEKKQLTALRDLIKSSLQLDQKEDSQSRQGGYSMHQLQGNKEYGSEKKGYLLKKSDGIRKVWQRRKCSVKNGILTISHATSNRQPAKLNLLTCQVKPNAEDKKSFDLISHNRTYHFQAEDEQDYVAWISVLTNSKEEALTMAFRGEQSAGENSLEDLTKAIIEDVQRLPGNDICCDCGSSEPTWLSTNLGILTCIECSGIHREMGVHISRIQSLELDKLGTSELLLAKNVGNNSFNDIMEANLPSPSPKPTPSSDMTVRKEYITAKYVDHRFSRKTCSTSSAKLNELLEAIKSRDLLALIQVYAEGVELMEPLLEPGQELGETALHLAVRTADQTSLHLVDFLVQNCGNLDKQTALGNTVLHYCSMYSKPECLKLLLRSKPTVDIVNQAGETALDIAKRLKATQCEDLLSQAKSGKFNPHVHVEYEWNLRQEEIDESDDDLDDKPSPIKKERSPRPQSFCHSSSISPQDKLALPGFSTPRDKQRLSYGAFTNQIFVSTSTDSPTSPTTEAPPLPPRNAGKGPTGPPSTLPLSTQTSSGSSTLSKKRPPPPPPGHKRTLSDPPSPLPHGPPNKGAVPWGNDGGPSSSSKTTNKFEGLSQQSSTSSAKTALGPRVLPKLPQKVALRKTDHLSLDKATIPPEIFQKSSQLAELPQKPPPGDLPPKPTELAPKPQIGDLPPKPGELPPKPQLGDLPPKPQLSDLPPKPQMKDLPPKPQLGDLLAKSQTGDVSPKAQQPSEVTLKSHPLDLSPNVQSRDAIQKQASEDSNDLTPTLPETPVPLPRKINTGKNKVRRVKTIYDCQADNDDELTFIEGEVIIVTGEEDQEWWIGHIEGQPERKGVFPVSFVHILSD

HEK293 = assay: cells; assay type: functional, cell-based; settings: Homo sapiens
[4] = molecular target: T2, Nuclear receptor subfamily 0 group B member 1 (Homo sapiens, UniProt P51843); assay: Luminescence-based cell-based high throughput dose response assay for inhibitors of the orphan nuclear receptor subfamily 0, group B, member 1 (DAX1; NR0B1). [Related pubchem assays (depositor defined):AID504766, AID504790]; assay type: functional
T2 sequence (P51843 whole entry): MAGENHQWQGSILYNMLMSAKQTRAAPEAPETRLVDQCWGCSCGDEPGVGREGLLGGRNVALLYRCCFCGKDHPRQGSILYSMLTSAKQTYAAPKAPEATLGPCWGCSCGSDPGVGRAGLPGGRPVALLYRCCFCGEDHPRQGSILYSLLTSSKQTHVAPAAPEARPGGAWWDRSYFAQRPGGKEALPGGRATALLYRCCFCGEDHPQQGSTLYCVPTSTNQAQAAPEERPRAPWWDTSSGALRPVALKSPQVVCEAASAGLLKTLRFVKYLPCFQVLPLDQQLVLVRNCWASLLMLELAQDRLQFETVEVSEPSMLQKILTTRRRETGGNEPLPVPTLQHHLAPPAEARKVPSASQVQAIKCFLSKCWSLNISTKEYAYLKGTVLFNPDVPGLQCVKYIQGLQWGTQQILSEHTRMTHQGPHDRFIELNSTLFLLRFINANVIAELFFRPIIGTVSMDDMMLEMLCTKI

[5] = molecular target: Adenosylmethionine-8-amino-7-oxononanoate aminotransferase (Mycobacterium tuberculosis, UniProt P9WQ81); assay: Mycobacterium tuberculosis BioA enzyme inhibitor Measured in Biochemical System Using Plate Reader - 2163-02_Inhibitor_Dose_CherryPick_Activity.; assay type: functional, Mycobacterium tuberculosis UT205
Chain of Adenosylmethionine-8-amino-7-oxononanoate aminotransferase (P9WQ81 whole entry): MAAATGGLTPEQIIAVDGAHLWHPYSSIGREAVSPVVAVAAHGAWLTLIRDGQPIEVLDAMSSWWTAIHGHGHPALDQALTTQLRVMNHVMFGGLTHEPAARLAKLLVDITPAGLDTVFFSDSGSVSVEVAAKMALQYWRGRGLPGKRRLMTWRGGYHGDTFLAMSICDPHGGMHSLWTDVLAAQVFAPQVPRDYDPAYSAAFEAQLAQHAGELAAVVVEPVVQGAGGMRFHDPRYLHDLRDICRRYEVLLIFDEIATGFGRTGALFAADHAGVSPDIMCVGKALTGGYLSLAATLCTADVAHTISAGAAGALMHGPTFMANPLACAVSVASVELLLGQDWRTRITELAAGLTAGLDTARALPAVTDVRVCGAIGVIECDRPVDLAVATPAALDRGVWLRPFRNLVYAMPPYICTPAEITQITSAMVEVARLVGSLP

[6] = molecular target: T3, Aryl hydrocarbon receptor (Homo sapiens, UniProt P35869); settings: Potency;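 note: confirmatory quantitative high-throughput screen measuring activation of the AhR signaling pathway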
T3 sequence (P35869 whole entry): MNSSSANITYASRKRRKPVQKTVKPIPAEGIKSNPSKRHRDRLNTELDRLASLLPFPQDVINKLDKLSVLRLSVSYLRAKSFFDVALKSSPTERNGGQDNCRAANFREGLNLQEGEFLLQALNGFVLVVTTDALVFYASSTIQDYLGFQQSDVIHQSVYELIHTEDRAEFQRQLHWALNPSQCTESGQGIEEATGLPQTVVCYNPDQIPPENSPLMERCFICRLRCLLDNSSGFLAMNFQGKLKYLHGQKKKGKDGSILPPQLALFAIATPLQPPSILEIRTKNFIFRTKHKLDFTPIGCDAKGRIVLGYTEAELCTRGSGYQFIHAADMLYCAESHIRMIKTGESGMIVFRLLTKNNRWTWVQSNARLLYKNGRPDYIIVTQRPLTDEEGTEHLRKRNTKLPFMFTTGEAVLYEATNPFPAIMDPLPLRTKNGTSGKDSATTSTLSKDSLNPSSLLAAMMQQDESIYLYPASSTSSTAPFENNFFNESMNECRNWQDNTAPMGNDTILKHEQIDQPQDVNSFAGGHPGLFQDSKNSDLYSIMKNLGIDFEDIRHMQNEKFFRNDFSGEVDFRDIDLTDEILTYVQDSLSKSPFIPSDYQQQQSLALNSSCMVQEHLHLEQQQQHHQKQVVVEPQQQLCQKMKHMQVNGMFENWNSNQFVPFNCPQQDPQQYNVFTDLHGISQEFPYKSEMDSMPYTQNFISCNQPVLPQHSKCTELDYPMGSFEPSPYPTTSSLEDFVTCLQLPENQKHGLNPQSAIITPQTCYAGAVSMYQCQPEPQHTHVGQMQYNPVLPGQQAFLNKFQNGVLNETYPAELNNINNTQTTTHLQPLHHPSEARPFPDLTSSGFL

[7] = molecular target: Mitogen-activated protein kinase 9 (Homo sapiens, UniProt P45984); assay type: functional;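 note: value from a kinome panel profiling assay, MAPK9 panel entry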
Chain of Mitogen-activated protein kinase 9 (P45984 whole entry): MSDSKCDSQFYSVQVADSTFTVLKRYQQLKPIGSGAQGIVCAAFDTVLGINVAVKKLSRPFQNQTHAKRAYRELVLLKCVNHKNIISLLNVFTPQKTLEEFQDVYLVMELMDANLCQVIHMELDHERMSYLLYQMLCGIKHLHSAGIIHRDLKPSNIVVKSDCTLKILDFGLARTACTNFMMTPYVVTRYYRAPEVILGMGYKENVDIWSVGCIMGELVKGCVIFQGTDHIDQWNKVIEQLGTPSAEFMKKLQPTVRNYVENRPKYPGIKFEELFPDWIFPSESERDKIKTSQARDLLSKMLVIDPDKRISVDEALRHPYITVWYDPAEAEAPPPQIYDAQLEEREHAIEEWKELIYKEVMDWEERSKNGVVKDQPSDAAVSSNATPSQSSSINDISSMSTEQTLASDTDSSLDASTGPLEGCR

[8] = molecular target: Dual specificity protein kinase CLK2 (Homo sapiens, UniProt P49760); assay type: functional
Chain of Dual specificity protein kinase CLK2 (P49760 whole entry): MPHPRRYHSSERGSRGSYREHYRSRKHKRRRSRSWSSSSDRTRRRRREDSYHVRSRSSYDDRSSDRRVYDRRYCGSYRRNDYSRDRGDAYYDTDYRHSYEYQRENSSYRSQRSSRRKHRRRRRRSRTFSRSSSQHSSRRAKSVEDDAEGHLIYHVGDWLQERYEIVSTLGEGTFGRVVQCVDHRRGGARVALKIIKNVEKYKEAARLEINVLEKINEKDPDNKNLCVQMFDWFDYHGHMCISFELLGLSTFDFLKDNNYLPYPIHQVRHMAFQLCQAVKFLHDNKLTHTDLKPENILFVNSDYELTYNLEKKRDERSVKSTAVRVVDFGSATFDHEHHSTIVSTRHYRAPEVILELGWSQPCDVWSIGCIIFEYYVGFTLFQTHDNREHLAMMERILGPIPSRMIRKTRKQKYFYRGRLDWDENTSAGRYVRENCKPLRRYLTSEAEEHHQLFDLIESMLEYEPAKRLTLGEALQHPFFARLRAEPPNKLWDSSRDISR

[9] = molecular target: Dual specificity protein kinase CLK4 (Homo sapiens, UniProt Q9HAZ1); assay type: functional
Chain of Dual specificity protein kinase CLK4 (Q9HAZ1 whole entry): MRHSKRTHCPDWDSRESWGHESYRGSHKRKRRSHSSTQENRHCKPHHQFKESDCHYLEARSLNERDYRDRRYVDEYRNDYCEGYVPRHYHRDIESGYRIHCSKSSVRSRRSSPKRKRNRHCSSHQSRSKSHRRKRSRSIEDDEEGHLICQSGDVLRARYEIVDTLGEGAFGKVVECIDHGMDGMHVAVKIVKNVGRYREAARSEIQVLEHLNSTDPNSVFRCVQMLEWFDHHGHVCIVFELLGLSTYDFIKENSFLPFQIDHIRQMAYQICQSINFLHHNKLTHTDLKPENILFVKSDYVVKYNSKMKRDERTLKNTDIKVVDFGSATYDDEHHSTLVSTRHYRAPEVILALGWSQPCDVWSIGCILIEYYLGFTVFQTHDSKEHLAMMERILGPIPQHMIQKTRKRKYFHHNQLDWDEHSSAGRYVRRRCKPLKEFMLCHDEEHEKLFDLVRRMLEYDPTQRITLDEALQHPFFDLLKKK

[10] = molecular target: Dual specificity tyrosine-phosphorylation-regulated kinase 1A (Homo sapiens, UniProt Q13627); assay type: functional;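 note: measured against DYRK1A as one member of a broad kinome profiling panel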
[11] = molecular target: Hepatocyte nuclear factor 4-alpha (Homo sapiens, UniProt P41235); assay type: functional, cell-based;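 note: biochemical luminescence-based dose-response counterscreen measuring inhibition of HNF4 dimerization, run alongside a screen for blockers of ABHD5–perilipin-5 interaction; split luciferase complementation of HNF4 fusion proteins in cell lysate measuring dimerization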
Chain of Hepatocyte nuclear factor 4-alpha (P41235 whole entry, the tested form may be a part): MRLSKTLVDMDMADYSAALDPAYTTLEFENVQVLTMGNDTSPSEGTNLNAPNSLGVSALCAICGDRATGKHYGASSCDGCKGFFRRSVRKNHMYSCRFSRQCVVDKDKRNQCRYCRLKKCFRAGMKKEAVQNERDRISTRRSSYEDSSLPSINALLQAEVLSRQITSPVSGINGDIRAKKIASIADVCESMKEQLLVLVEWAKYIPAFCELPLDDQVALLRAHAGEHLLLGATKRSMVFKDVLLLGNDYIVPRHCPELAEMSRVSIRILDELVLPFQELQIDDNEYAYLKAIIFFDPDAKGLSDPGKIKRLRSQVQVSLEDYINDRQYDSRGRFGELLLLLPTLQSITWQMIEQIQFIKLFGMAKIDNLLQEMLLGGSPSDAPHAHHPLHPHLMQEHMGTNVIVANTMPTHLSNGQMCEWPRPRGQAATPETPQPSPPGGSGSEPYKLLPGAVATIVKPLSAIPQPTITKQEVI

[12] = test system: Streptococcus sp. 'group A'; assay: Streptococcus pyogenes SK(-)GAS viability under kanamycin – luminescence, BacTiterGlo, confirmation, counter-screen for streptokinase expression inhibitor project, dose response (AID 1900); assay type: functional, organism-based
Streptokinase A = molecular target: T4, Streptokinase A (Streptococcus pyogenes serotype M1, UniProt P10520); assay: viability-normalized secreted streptokinase activity reduction – plasminogen activation absorbance, OD405, dose response (AID 1914); assay type: functional, Streptococcus pyogenes M1 GAS;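 note: secreted streptokinase activity via plasminogen activation per viability signal from cell pellet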
T4 sequence (P10520 whole entry): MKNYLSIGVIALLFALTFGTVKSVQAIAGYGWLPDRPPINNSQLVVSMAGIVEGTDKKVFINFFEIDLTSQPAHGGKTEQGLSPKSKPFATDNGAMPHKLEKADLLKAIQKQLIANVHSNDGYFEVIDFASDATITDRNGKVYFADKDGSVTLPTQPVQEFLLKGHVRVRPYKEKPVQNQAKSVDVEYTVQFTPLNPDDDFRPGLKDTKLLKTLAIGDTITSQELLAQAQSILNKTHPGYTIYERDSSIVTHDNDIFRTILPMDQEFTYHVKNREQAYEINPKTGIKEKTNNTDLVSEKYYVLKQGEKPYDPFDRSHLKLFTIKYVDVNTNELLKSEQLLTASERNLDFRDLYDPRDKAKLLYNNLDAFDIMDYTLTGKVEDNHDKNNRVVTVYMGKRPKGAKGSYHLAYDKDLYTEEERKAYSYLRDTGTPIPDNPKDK

[13] = Trypanosoma cruzi growth suppression in host cells – NIH3T3 host cells, beta-gal luminescence, confirmation (AID 2044); assay type: functional, cell-based;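 note: intracellular parasites grown in NIH/3T3 mouse fibroblasts as host cells; luminescent beta-galactosidase reporter signal from transgenic T. cruzi replicating inside host cells; inhibitors lower the luminescence signal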
[14] = NIH3T3 cell viability loss – ATP luminescence, mouse fibroblasts, counter-screen, dose response (AID 2010); assay type: functional, cell-based;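 note: cells exposed to compound for about 90 hours before reading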
Streptococcus = assay: GAS UMAA2166 growth inhibition – luminescence, BacTiterGlo, counter-screen for streptokinase expression inhibitor project, dose response (AID 1915); assay type: functional, organism-based;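 note: potency for reduction of bacterial viability or growth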
cells = assay type: functional

Cc1ccc(NC(=O)c2ccc(NCc3ccco3)c([N+](=O)[O-])c2)cc1Cl
EC50 [1]: > 99 µM (inactive) | EC50 [2]: > 99 µM (inactive) | IC50 [3]: 33.6 µM (inactive)

O=S(=O)(NCC1NCCc2ccccc21)c1ccccc1 (stereo not drawn)
IC50 (HEK293): > 67.6 µM (inactive) | IC50 [4]: > 67.6 µM (inactive)

Cc1cccc(CN2CCN(C(S)=Nc3ccccc3)CC2)c1
IC50 (HEK293): > 67.6 µM (inactive) | IC50 [4]: > 67.6 µM (inactive)

O=C(COc1ccc2ccc(=O)oc2c1)N1CCN(c2ccc(F)cc2)CC1
AC50 [5]: 1 µM (active)

COc1cc(Cl)c(OC)cc1N
AC50 [6]: 56.2 µM (inconclusive)

CC(C)(C)c1cc(NC(=O)c2cc3ccccc3s2)n(-c2ccc(OCC(=O)O)cc2)n1
Ki [7]: 3.98 µM (active)

O=c1[nH]c2ccc(Br)cc2n1-c1cc(Cl)c(O)cc1O
Ki [8]: 6.31 µM (active) | Ki [9]: 3.16 µM (active) | Ki [10]: 5.01 µM (active)

COc1ccc(NC(=O)C(c2cccc3ccccc23)n2c(=O)c(-c3ccco3)nc3ccccc32)cc1 (stereo not drawn)
IC50 [11]: 25.5 µM (inactive)

COc1ccc(NC(=O)C(c2ccccc2)n2c(=O)c(-c3ccco3)nc3ccccc32)cc1 (stereo not drawn)
IC50 [11]: 12.8 µM (inactive)

Cc1ccc(N/N=C2\CS(=O)(=O)N(C)c3ccsc32)cc1
EC50 [12]: 1.25 µM (active) | EC50 (Streptokinase A): 4.04 µM (active) | EC50 [13]: 2.21 µM (active) | EC50 [14]: > 60 µM (not active) | EC50 (Streptococcus): 11.3 µM (active) | IC50 (cells): 21.2 µM (active) | IC50 (HEK293): > 67.5 µM (inactive) | IC50 [4]: > 67.5 µM (inactive)
